Like-named read-outs stand apart in the source and are kept apart here. Where a SMILES comes first, the peptide text is derived from it. Bridges are numbered along the chain shown (N, C = ends). [ ]: non-standard residue; d: D form. The star is where a group is joined. Heptanoyl(6-Me) = CC(C)CCCCC(=O)*; X1 = CC[C@H](C)CCCCC(=O)*; Octanoyl = CCCCCCCC(=O)*; Dab = NCC[C@H](N)C(=O)O
Columns and labels:
[1] = Serum pharmacokinetics after intravenous polymyxin B liposomes or aqueous solution (USP); format: in vivo, Swiss Webster mice; conditions: for AUC(0-t): n = 4, normalized by dose, read-out: AUC0-6 h
Procedure: (§1) The animal protocol was approved by the University of Houston Institutional Animal Care and Use Committee. The animals received food and water ad libitum. Two groups of 24 female ND4 Swiss Webster mice (20-23 g, Harlan Laboratory, Indianapolis, Ind.) were intravenously administrated PB liposomes and aqueous solution (USP), respectively, at approximately 3 mg/kg through the tail vein. At each time point (0.1, 0.5, 1, 2, 4 and 6 h post-dose), four mice were sacrificed for blood and epithelial lining fluid sample collection. The blood samples were clotted on crushed ice and the serum was obtained by centrifugation. The epithelial lining fluid samples were obtained by bronchoalveolar lavage. All the serum and epithelial lining fluid samples were stored at −80° C. until analysis.
(§2) Four major polymyxin B components in serum and epithelial lining fluid samples were assayed by a validated UPLC-MS/MS method. An Acquity UPLC HSS C18 column was used with 0.1% formic acid/acetonitrile as mobile phases. Analysis was performed in positive ionization mode with multiple reactions monitoring (MRM) scan type. Briefly, the serum and epithelial lining fluid samples (200 μl) were spiked with 20 μl of carbutamide (internal standard). Two hundred μl of 5% trichloroacetic acid was added to precipitate the proteins, followed by 1 min of vortexing. After centrifugation at 18,000× g for 15 min, the supernatant was transferred to a new tube and evaporated to dryness under a stream of nitrogen. The residue was reconstituted in 100 μl of mobile phase (acetonitrile: 0.1% formic acid=50:50) and then centrifuged at 18,000×g for 15 minutes. Ten μl of supernatant was injected into the UPLC-MS/MS for quantitative analysis. The linear concentration range was 6.5-3200 ng/ml for both serum and epithelial lining fluid samples. The intra-day and inter-day variance was less than […] for all the components in both serum and epithelial lining fluid. The concentration of drug in epithelial lining fluid (CELF) was corrected using the equation: CELF=CBALF× Ureaserum/UreaBALF, where UreaBALF and Ureaserum were the concentrations of urea in bronchoalveolar lavage fluid (BALF) and serum, respectively (18).
(§3) Concentrations of urea in serum and BALF samples were quantified with a commercially available assay kit (Quantichrom™ Urea Assay kit, BioAssay System, Hayward, Calif.) and measured on a Synergy2 microplate reader (BioTek Instrument, Winooski, Vt.). Drug exposures observed in both serum and epithelial lining fluid were normalized by the specific dose of each batch of liposomes to account for the variances among different pharmacokinetic experiments. Naïve data averaging was used; the best-fit pharmacokinetic parameters as well as drug exposure in serum and ELF were calculated by WinNonlin 3.3 (Pharsight Corporation, Mountain View, Calif.) using a one-compartment model and non-compartmental analysis, respectively. Statistical differences between liposome and aqueous solution were determined by Mann-Whitney test at the significance level of p≤0.05.

[2] = Epithelial lining fluid (ELF) pharmacokinetics after intravenous polymyxin B liposomes or aqueous solution (USP); format: in vivo, Swiss Webster mice; conditions: for AUC(0-t): female, ND4 Swiss Webster, n = 4, read-out: AUC0-6 h, epithelial lining fluid
Procedure: as §1, §2, §3

[3] = Kidney exposure after IV polymyxin liposome or solution (USP); format: in vivo, mice; conditions: for AUC(0-t) / AUC0-6 h, kidney: female, ND4 Swiss Webster
[4] = test system: Lrp2/megalin; test: Urinary excretion of megalin after maleate administration (ELISA); format: in vivo; conditions: rats, single 400 mg/kg intraperitoneal dose
Procedure: Three rats were housed individually in separate metabolic cages 24 h prior to maleate pretreatment. A single dose of 400 mg/kg of sodium maleate was given intraperitoneally; this was previously reported to induce reversible ultrastructural modifications in the apical brush border membrane of proximal renal tubules (34). To study megalin urinary excretion, cumulative urine was collected daily from day −1 to day 15. The urine samples were spun down to remove particulate matter. Subsequently, the urine samples were aliquoted and stored at −80° C. prior to analysis. The samples were thawed, and urinary Lrp2/megalin concentrations were quantitatively measured using a commercially available ELISA kit for megalin. For each animal, the daily megalin concentrations were expressed as a normalized ratio to the baseline megalin value.

[5] = test system: proximal tubules; test: Electron microscopy of maleate-treated kidney sections; format: in vivo; conditions: rats
Procedure: For morphological studies, one animal was sacrificed at 3 h and another at 14 days after maleate administration to collect the kidneys. The harvested kidneys were submitted for electron microscopic studies. Tissue samples from both renal cortical and medullary regions were fixed in 2% glutaraldehyde at 4° C. overnight, followed by additional fixation in osmium tetroxide. The renal tissue was dehydrated and embedded in epoxy resin. Approximately 1-μm pilot sections were stained with toluidine for selection of the areas for further ultrastructural examination. Thin sections of these selected areas were cut and subjected to examination under a JEOL 300 electron microscope at 80 kV. The kidneys from two naive rats were harvested, processed in a similar fashion, and used as controls.

[6] = female, ND4 Swiss Webster, mouse, in vivo, iv
[7] = mouse, in vivo, iv, 3 mg/kg, AUC0-6 h, kidney

Row | Structure (SMILES) | half-life [1, 6] | T1/2 (elimination half-life) ([1]; mouse, in vivo, iv) | time post-dose up to which the component could be quantified in ELF ([2]; mouse, in vivo, iv) | AUC ratio (liposome:solution), epithelial lining fluid ([2]; mouse, in vivo, iv, 3 mg/kg) | AUC ratio (liposome:solution), kidney ([3]; mouse, in vivo, iv, 3 mg/kg) | AUC0-6 h, kidney ([3]; mouse, in vivo, iv, 3 mg/kg) | AUC(0-t) [3, 7] | further results
1 | CCCCCCCC(=O)N[C@@H](CCN)C(=O)N[C@H](C(=O)N[C@@H](CCN)C(=O)N[C@H]1CCNC(=O)[C@H]([C@@H](C)O)NC(=O)[C@H](CCN)NC(=O)[C@H](CCN)NC(=O)[C@H](CC(C)C)NC(=O)[C@@H](Cc2ccccc2)NC(=O)[C@H](CCN)NC1=O)[C@@H](C)O [PB3, polymyxin B3] (Octanoyl-[Dab]T[Dab][Dab][Dab][dF]L[Dab][Dab]T; lactam 4-C) | 18 min | 16.8 min | up to 2 h | 4.92 | 0.37 | – | – | –
2 | CC[C@H](C)CCCCC(=O)N[C@@H](CCN)C(=O)N[C@H](C(=O)N[C@@H](CCN)C(=O)N[C@H]1CCNC(=O)[C@H]([C@@H](C)O)NC(=O)[C@H](CCN)NC(=O)[C@H](CCN)NC(=O)[C@H](CC(C)C)NC(=O)[C@@H](Cc2ccccc2)NC(=O)[C@H](CCN)NC1=O)[C@@H](C)O [PB1, polymyxin B1] (X1-[Dab]T[Dab][Dab][Dab][dF]L[Dab][Dab]T; lactam 4-C) | – | – | – | – | – | – | – | half-life ([1]; female, ND4 Swiss Webster, mouse, in vivo, 3 mg/kg, serum, mice, IV polymyxin B liposomes, one-compartment model, read-out: T1/2 (elimination half-life) (converted)): 36 min; AUC(0-t) ([1]; female, ND4 Swiss Webster, mouse, in vivo, iv, 3 mg/kg, serum, mice, IV polymyxin B liposomes approx. 3 mg/kg): 4770 ng·h/mL; AUC(0-t) ([1]; female, ND4 Swiss Webster, mouse, in vivo, iv, 3 mg/kg, serum, mice, IV polymyxin B solution (USP) approx. 3 mg/kg): 2760 ng·h/mL; total clearance ([1]; mice, IV aqueous solution approx. 3 mg/kg): 1.4±0.5 I/h/kg; total clearance ([1]; mice, IV liposomal formulation approx. 3 mg/kg): 0.6±0.3 I/h/kg; AUC ratio (liposome:solution), epithelial lining fluid ([2]; ELF, mice, IV 3 mg/kg): 6.21; AUC(0-t) ([2]; mouse, in vivo, iv, 3 mg/kg, ELF, mice, IV 3 mg/kg polymyxin liposome): 9750 ng·h/mL; AUC(0-t) ([2]; mouse, in vivo, iv, 3 mg/kg, ELF, mice, IV 3 mg/kg polymyxin solution (USP)): 1570 ng·h/mL; AUC(0-t) ([3]; mouse, in vivo, iv, 3 mg/kg, kidney, mice, IV 3 mg/kg polymyxin liposome, n = 24, read-out: AUC0-6 h, kidney): 28400 ng·h/mL; AUC(0-t) ([3]; mouse, in vivo, iv, 3 mg/kg, kidney, mice, IV 3 mg/kg polymyxin solution (USP), n = 24, read-out: AUC0-6 h, kidney): 34200 ng·h/mL; AUC ratio (liposome:solution), kidney ([3]; kidney, mice, IV 3 mg/kg): 0.83
3 | CC[C@H](C)CCCCC(=O)N[C@@H](CCN)C(=O)N[C@H](C(=O)N[C@@H](CCN)C(=O)N[C@H]1CCNC(=O)[C@H]([C@@H](C)O)NC(=O)[C@H](CCN)NC(=O)[C@H](CCN)NC(=O)[C@H]([C@@H](C)CC)NC(=O)[C@@H](Cc2ccccc2)NC(=O)[C@H](CCN)NC1=O)[C@@H](C)O [ile-PB1, isoleucine polymyxin B1] (X1-[Dab]T[Dab][Dab][Dab][dF]I[Dab][Dab]T; lactam 4-C) | 25.2 min | 17.4 min | up to 4 h | 4.55 | 0.84 | 4980 ng·h/mL | 4160 ng·h/mL | –
4 | O=C([O-])/C=C\C(=O)[O-].[Na+].[Na+] [maleate, Sodium maleate dibasic salt] | – | – | – | – | – | – | – | elevation in the level of urinary megalin [4]: approximately 20 times the baseline measurement; time until urinary megalin levels reverted to baseline [4]: approximately 11 days; electron microscopic findings in kidney ([5]; two weeks after 400 mg/kg intraperitoneally): no significant changes; electron microscopic findings in kidney ([5]; within 3 h after 400 mg/kg intraperitoneally): morphological and ultrastructural changes in the proximal tubules
5 | CC(C)CCCCC(=O)N[C@@H](CCN)C(=O)N[C@H](C(=O)N[C@@H](CCN)C(=O)N[C@H]1CCNC(=O)[C@H]([C@@H](C)O)NC(=O)[C@H](CCN)NC(=O)[C@H](CCN)NC(=O)[C@H](CC(C)C)NC(=O)[C@@H](Cc2ccccc2)NC(=O)[C@H](CCN)NC1=O)[C@@H](C)O [PB2, polymyxin B2] ({Heptanoyl(6-Me)}-[Dab]T[Dab][Dab][Dab][dF]L[Dab][Dab]T; lactam 4-C (inferred)) | 26.4 min | 12.6 min | up to 2 h | 11.10 | 0.77 | 12240 ng·h/mL | 9440 ng·h/mL | clearance [1, 6]: 5.14 mL/min/kg; Cl (clearance) ([1]; mouse, in vivo, iv): 14.998 mL/min/kg; Vss (volume of distribution at steady state) ([1]; mouse, in vivo, iv): 0.27474 L/kg
